From article PMC8037033, “Synthesis and Rational Design of New Appended 1,2,3-Triazole-uracil Ensembles as Promising Anti-Tumor Agents via In Silico VEGFR-2 Transferase Inhibition” (Molecules, 2021)

Legend:
HeLa tumor cells = assay: MTT cytotoxicity assay, HeLa; assay type: cell-based, human; conditions: 72 h
Method: (§1) The cell viability was measured by MTT colourimetric assay. The cell lines viz., HeLa (human cervical adenocarcinoma), HUH-7 (human hepatoma cancer cells) and NIH/3T3 (normal murine fibroblast cells) were supplemented with 10% fetal bovine serum and maintained in an environment of 5% CO2 at 37 °C temperature. Cell lines at a density of 2 × 10^3 cells/well were seeded onto 96 well plates for 16 h and maintained in DMEM culture media. Five different concentrations of synthesized ligands and 5-fluorouracil (except for normal cells) i.e., 0.1, 0.5, 1, 5 and 10 μM were treated against each cell line and incubated for 3 days at 37 °C [56]. Then, the solutions were discarded and an MTT reagent with a final concentration of 500 μg/mL was added to each well and plate and incubated for another 4–6 h. 200 μL of DMSO was added to solubilize purple precipitates (formazan product) and absorbance (optical density) was recorded at 570 nm on ELISA reader. IC50 values were calculated using dose-response data by applying the linear regression method. The experiments were done in triplicate for each concentration of ligand.

HUH-7 tumor cells = assay: MTT cytotoxicity assay, HUH-7; assay type: cell-based; conditions: Homo sapiens, 72 h
Method: as §1

NIH/3T3 normal cells = assay: MTT cytotoxicity assay, NIH/3T3 normal cells; assay type: cell-based, murine; conditions: Mus musculus, NIH3T3, 72 h
Method: as §1

Structure (SMILES) | IC50 (HeLa tumor cells; Homo sapiens, HeLa) | IC50 (HUH-7 tumor cells) | melting point | IC50 (NIH/3T3 normal cells) | IC50 (HeLa tumor cells)
O=c1[nH]cc(F)c(=O)[nH]1 [Compound 5-FU, 5-fluorouracil, reference compound] | 4.6 ± 0.2 µM | 30 ± 2.5 µM |  |  | 
Cn1c(=O)cc(Cl)n(Cc2cn(-c3ccccc3)nn2)c1=O [Compound 5a, 6-Chloro-3-methyl-1-((1-phenyl-1H-1,2,3-triazol-4-yl)methyl)pyrimidine-2,4(1H,3H)-dione] | 11.2 ± 0.1 µM | > 10 µM | 120 to 121 °C | > 10 µM | 
Cn1c(=O)cc(Cl)n(Cc2cn(-c3ccc(F)cc3)nn2)c1=O [Compound 5b, 6-Chloro-1-((1-(4-fluorophenyl)-1H-1,2,3-triazol-4-yl)methyl)-3-methylpyrimidine-2,4(1H,3H)-dione] | > 10 µM | > 10 µM | 97 °C | > 10 µM | 
Cn1c(=O)cc(Cl)n(Cc2cn(-c3ccc(Cl)cc3)nn2)c1=O [Compound 5c, 6-Chloro-1-((1-(4-chlorophenyl)-1H-1,2,3-triazol-4-yl)methyl)-3-methylpyrimidine-2,4(1H,3H)-dione] | > 10 µM | > 10 µM | 100 °C | > 10 µM | 
Cn1c(=O)cc(Cl)n(Cc2cn(-c3ccc([N+](=O)[O-])cc3)nn2)c1=O [Compound 5d, 6-Chloro-3-methyl-1-((1-(4-nitrophenyl)-1H-1,2,3-triazol-4-yl)methyl)pyrimidine-2,4(1H,3H)-dione] | > 10 µM | > 10 µM | 110 to 112 °C | > 10 µM | 
COc1ccc(-n2cc(Cn3c(Cl)cc(=O)n(C)c3=O)nn2)cc1 [Compound 5e, 6-Chloro-1-((1-(4-methoxyphenyl)-1H-1,2,3-triazol-4-yl)methyl)-3-methylpyrimidine-2,4-(1H,3H)-dione] | > 10 µM | > 10 µM | 145 to 148 °C | > 10 µM | 
Cn1c(=O)cc(Cl)n(Cc2cn(Cc3ccccc3)nn2)c1=O [Compound 5f, 1-((1-Benzyl-1H-1,2,3-triazol-4-yl)methyl)-6-chloro-3-methylpyrimidine-2,4(1H,3H)-dione] | > 10 µM | 10.8 ± 0.5 µM | 115 to 118 °C | > 10 µM | 
Cn1c(=O)cc(Cl)n(Cc2cn(Cc3ccc(Br)cc3)nn2)c1=O [Compound 5g, 1-((1-(4-Bromobenzyl)-1H-1,2,3-triazol-4-yl)methyl)-6-chloro-3-methylpyrimidine-2,4(1H,3H)-dione] | > 10 µM | > 10 µM | 138 to 140 °C | > 10 µM | 
Cc1ccc(Cn2cc(Cn3c(Cl)cc(=O)n(C)c3=O)nn2)cc1 [Compound 5h, 6-Chloro-3-methyl-1-((1-(4-methylbenzyl)-1H-1,2,3-triazol-4-yl)methyl)pyrimidine-2,4(1H,3H)-dione] | 4.5 ± 0.5 µM | 7.7 ± 0.3 µM |  | > 10 µM | 
COc1cccc(Cn2cc(Cn3c(Cl)cc(=O)n(C)c3=O)nn2)c1 [Compound 5i, 6-Chloro-1-((1-(3-methoxybenzyl)-1H-1,2,3-triazol-4-yl)methyl)-3-methylpyrimidine-2,4(1H,3H)-dione] | 9 µM | 9 ± 0.8 µM | 98 to 100 °C | > 10 µM | > 10 µM
Cn1c(=O)cc(Cl)n(Cc2cn(Cc3cccc(Oc4ccccc4)c3)nn2)c1=O [Compound 5j, 6-Chloro-3-methyl-1-((1-(3-phenoxybenzyl)-1H-1,2,3-triazol-4-yl)methyl)pyrimidine-2,4(1H,3H)-dione] | 10 ± 1.5 µM | > 10 µM | 101 to 105 °C | > 10 µM | 
Cn1c(=O)cc(Cl)n(Cc2cn(Cc3nc(C4=Cc5ccccc5OC4)no3)nn2)c1=O [Compound 5k, 1-((1-((3-(2H-Chromen-3-yl)-1,2,4-oxadiazol-5-yl)methyl)-1H-1,2,3-triazol-4-yl)methyl)-6-chloro-3-methylpyrimidine-2,4(1H,3H)-dione] | > 10 µM | > 10 µM | 125 to 128 °C | > 10 µM | 
COc1cccc2c1OCC(c1noc(Cn3cc(Cn4c(Cl)cc(=O)n(C)c4=O)nn3)n1)=C2 [Compound 5l, 6-Chloro-1-((1-((3-(8-methoxy-2H-chromen-3-yl)-1,2,4-oxadiazol-5-yl)methyl)-1H-1,2,3-triazol-4-yl)methyl)-3-methylpyrimidine-2,4(1H,3H)-dione] | > 10 µM | > 10 µM | 122 to 125 °C | > 10 µM | 
Cc1cc(=O)oc2cc(OCCCCn3cc(Cn4c(Cl)cc(=O)n(C)c4=O)nn3)ccc12 [Compound 5m, 6-Chloro-3-methyl-1-((1-(4-((4-methyl-2-oxo-2H-chromen-7-yl)oxy)butyl)-1H-1,2,3-triazol-4-yl)methyl)pyrimidine-2,4(1H,3H)-dione] | > 10 µM | > 10 µM | 145 to 148 °C | > 10 µM | 
Cn1c(=O)cc(Cl)n(Cc2cn(CCCN3C(=O)c4cccc5cccc(c45)C3=O)nn2)c1=O [Compound 5n, 2-(3-(4-((6-Chloro-3-methyl-2,4-dioxo-3,4-dihydropyrimidin-1(2H)-yl)methyl)-1H-1,2,3-triazol-1-yl)propyl)-1H-benzo[de]isoquinoline-1,3(2H)-dione] | 9.6 ± 1.2 µM | > 10 µM | 96 to 98 °C | > 10 µM | 
CCCCCCn1cc(Cn2c(Cl)cc(=O)n(C)c2=O)nn1 [Compound 5o, 6-Chloro-1-((1-hexyl-1H-1,2,3-triazol-4-yl)methyl)-3-methylpyrimidine-2,4(1H,3H)-dione] | > 10 µM | > 10 µM | 100 to 102 °C | > 10 µM | 
CCCCCCCCn1cc(Cn2c(Cl)cc(=O)n(C)c2=O)nn1 [Compound 5p, 6-Chloro-3-methyl-1-((1-octyl-1H-1,2,3-triazol-4-yl)methyl)pyrimidine-2,4(1H,3H)-dione] | > 10 µM | > 10 µM |  | > 10 µM | 
Cn1c(=O)cc(Cl)n(Cc2cn(CCCCn3cc(Cn4c(Cl)cc(=O)n(C)c4=O)nn3)nn2)c1=O [Compound 5q, 1,1’-((Butane-1,4-diylbis(1H-1,2,3-triazole-1,4-diyl))bis(methylene))bis(6-chloro-3-methylpyrimidine-2,4(1H,3H)-dione)] | > 10 µM | > 10 µM | 115 to 118 °C | > 10 µM | 
Cn1c(=O)cc(Cl)n(Cc2cn(CCCCCn3cc(Cn4c(Cl)cc(=O)n(C)c4=O)nn3)nn2)c1=O [Compound 5r, 1,1’-((Pentane-1,5-diylbis(1H-1,2,3-triazole-1,4-diyl))bis(methylene))bis(6-chloro-3-methylpyrimidine-2,4(1H,3H)-dione)] | 9.6 ± 0.9 µM | > 10 µM | 114 to 115 °C | > 10 µM | 
